Measured values published in ChEMBL document CHEMBL4339226, “Novel Compounds Targeting the RNA-Binding Protein HuR. Structure-Based Design, Synthesis, and Interaction Studies” (ACS Med Chem Lett, 2019).
Calls of active or inactive are those of the source. No cut-off for these calls is given here.

Legend:
[1] = target: ELAV-like protein 1 (Homo sapiens) (UniProt Q15717); assay: Binding affinity to HuR (unknown origin) assessed as absolute STD percentage for pyridone moiety by 1H-STD-NMR spectroscopic analysis
Sequence of ELAV-like protein 1 (Homo sapiens) (Q15717 whole entry): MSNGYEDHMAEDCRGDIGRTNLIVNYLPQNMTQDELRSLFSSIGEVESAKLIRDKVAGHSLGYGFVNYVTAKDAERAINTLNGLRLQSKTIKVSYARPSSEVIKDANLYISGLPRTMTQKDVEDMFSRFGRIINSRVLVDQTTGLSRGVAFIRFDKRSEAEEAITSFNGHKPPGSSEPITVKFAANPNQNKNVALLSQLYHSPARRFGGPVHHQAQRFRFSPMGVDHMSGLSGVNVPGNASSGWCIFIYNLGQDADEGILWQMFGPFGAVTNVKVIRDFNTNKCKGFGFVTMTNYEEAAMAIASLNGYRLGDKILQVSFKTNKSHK

[2] = target: ELAV-like protein 1 (Homo sapiens) (UniProt Q15717); assay: Binding affinity to HuR (unknown origin) assessed as absolute STD percentage for isopropyl moiety by 1H-STD-NMR spectroscopic analysis
[3] = Solubility of the compound; format: physicochemical
[4] = target: ELAV-like protein 1 (Homo sapiens) (UniProt Q15717); assay: Binding affinity to HuR (unknown origin) assessed as absolute STD percentage for ring A moiety by 1H-STD-NMR spectroscopic analysis
[5] = target: ELAV-like protein 1 (Homo sapiens) (UniProt Q15717); assay: Binding affinity to HuR (unknown origin) assessed as absolute STD percentage for protons of the amino chain (H14, H15, and H16) by 1H-STD-NMR spectroscopic analysis
[6] = target: ELAV-like protein 1 (Homo sapiens) (UniProt Q15717); assay: Binding affinity to HuR (unknown origin) assessed as absolute STD percentage for ring B moiety by 1H-STD-NMR spectroscopic analysis
[7] = target: ELAV-like protein 1 (Homo sapiens) (UniProt Q15717); assay: Binding affinity to HuR (unknown origin) assessed as absolute STD percentage for ring C moiety by 1H-STD-NMR spectroscopic analysis

Activity [1]	Activity [2]	solubility [3]	Activity [4]	Activity [5]	Activity [6]	Activity [7]	Structure (SMILES)
1.2%	0.3%	–	–	–	–	–	CC(C)Cn1cnc(-c2cccc(Oc3ccccc3)c2)c1-c1ccc(=O)[nH]c1
–	–	Insoluble	–	–	–	–	COc1cc(OC)cc(-c2nc3sccn3c2NCCNC(=O)OCc2ccccc2)c1.Cl
–	0.4%	–	0.2%	inactive	0.03%	–	COc1cc(OC)cc([C@@H]2[C@@H](C(=O)NCCNCc3ccccc3)CCC(=O)N2CC(C)C)c1 (racemic)
–	–	–	0.4%	–	0.36%	0.25%	O=C(c1ccc(O)cc1)N(CCc1cc(O)cc(O)c1)Cc1cccc(Cl)c1
